The test system of data set [1] is Japanese encephalitis virus RdRp. In kind it is biochemical.
The test system of data set [2] is RNA G4 derived from the Nipah virus and ZIKV genomes. The conditions noted are these: cited from earlier work.
Data set [3] relates to TBEV-5. In kind it is binding, tick-borne encephalitis virus.
The test system of data set [4] is TBEV-5. In kind it is binding, tick-borne encephalitis virus. This is another data set of the same source.
Data set [5] has as its system SuperScript IV reverse transcriptase. In kind it is biochemical.
The test system of data set [6] is TBEV-5. It is filed as binding, tick-borne encephalitis virus. This is another data set of the same source.
Data set [7] deals with TBEV-5. It is filed as binding, tick-borne encephalitis virus. This is another data set of the same source.
The subject of data set [8] is PS cells.
Data set [9] relates to TBEV strain Hypr.
Data set [10] deals with TBEV strain Neudoerfl. As to the kind of experiment: microbe, parasite or virus in culture. Conditions: Tick-borne encephalitis virus, 48 h.
Data set [11] concerns TBEV strain Neudoerfl.
The test system of data set [12] is TBEV strain Hypr. As to the kind of experiment: microbe, parasite or virus in culture. The conditions noted are these: Tick-borne encephalitis virus, 48 h.
The nature of data set [13]: in vitro. Conditions: pig.
Data set [14] deals with TBEV strains Neudoerfl and Hypr. As to the kind of experiment: microbe, parasite or virus in culture. In kind it is cell-based, tick-borne encephalitis virus. Conditions: for EC50: read-out: EC50.
In data set [15] the test system is ZIKV virus. Conditions: 100 μM; cited from earlier work.
Data set [16] deals with TBEV strain Neudoerfl. In kind it is cell-based, tick-borne encephalitis virus.
Data set [17] relates to SuperScript IV reverse transcriptase. It is filed as biochemical. The source holds these as a separate data set.
For data set [18], the system named is TBEV strain Hypr. It is filed as cell-based, tick-borne encephalitis virus.
The test system of data set [19] is TBEV strain Hypr. In kind it is cell-based, tick-borne encephalitis virus. This is another data set of the same source.
For data set [20], the system named is Viral genome RNA from the TBEV strain Hypr. In kind it is cell-based, tick-borne encephalitis virus.
Data set [21] concerns TBEV strains Neudoerfl and Hypr. In kind it is cell-based, tick-borne encephalitis virus.
Data set [22] deals with ZIKV. The conditions noted are these: cited from earlier work.
Data set [23] concerns ZIKV NS2B-NS3 protease. Conditions: cited from earlier work.
In data set [24] the target is Japanese encephalitis virus RdRp (Japanese encephalitis virus, UniProt P32886). In kind it is biochemical.
The test system of data set [25] is HCV RdRp. Conditions: cited from earlier work.
[26] abbreviates: Tick-borne encephalitis virus, 48 h.

Entries after “also recorded” stand apart in the source; their conditions may differ. Read-outs that look alike come from different tables or passages of the source.

Usually EC50 stands for the midpoint of the concentration-response curve.

Sequence of Japanese encephalitis virus RdRp (Japanese encephalitis virus, UniProt P32886) (P32886 2528-3432 limits assumed): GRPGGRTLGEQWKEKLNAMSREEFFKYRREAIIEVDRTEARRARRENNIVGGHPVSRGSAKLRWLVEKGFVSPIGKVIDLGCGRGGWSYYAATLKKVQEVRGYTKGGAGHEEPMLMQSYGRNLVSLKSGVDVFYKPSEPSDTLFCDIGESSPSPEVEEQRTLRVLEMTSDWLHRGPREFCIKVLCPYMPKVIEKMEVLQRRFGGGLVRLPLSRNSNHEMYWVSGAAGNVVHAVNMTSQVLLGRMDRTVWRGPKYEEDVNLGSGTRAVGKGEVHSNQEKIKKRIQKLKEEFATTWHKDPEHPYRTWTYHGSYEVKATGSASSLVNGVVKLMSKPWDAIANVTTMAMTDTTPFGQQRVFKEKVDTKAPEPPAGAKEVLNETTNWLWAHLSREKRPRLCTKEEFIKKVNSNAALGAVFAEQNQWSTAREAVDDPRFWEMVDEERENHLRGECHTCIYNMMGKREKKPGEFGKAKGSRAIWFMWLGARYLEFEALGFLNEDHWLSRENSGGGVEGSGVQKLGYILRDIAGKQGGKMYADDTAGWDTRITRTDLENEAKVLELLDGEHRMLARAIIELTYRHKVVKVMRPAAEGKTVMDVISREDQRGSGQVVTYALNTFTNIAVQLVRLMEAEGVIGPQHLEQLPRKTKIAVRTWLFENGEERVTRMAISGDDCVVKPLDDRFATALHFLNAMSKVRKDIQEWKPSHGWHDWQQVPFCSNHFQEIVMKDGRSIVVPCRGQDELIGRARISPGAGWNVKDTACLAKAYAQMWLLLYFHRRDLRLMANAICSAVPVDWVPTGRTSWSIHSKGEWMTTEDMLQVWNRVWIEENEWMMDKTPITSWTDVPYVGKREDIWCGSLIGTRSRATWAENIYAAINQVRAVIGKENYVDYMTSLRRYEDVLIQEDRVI

For the compound “5,10,15,20-tetrakis-(N-methyl-4-pyridyl)porphine [TMPyP4]”, the “RdRp activity relative to no-ligand control” value in data set [1] is listed as under 10%. In data set [2], the “Interaction with RNA G4” value was “specifically interact”. Further, in [3], the “Binding of TBEV-5 (concentration for 50% TBEV-5 saturation)” value is “best binder” and the “G4 specificity of binding (titration curves with TBEV-5 versus TBEV-5mut)” value is reported as “bind non-specifically”. Moreover, the “Change of CD at 263 nm of TBEV-5” value in data set [4] was “most pronounced”. Besides, the “Full product of reverse transcription relative to no-ligand control” value in [5] was “inhibits reverse transcriptase”. Moreover, the “Increase in Tm of TBEV-5 G4” value in [6] was “strong distortion of melting curves”. The “Displacement of the probe (TO or ThT)” value in data set [7] is recorded as about 100%. For the same compound, the CC50 in [8] is over 50 µM.

On to `O=C1c2cccc(O)c2C(=O)c2c(O)cc(CO)cc21` [Aloe emodin, aloe-emodin], for which the “SI (CC50/EC50)” value in [9] and in [11] was over 1 in each case. In addition, the EC50 in data set [10] and in [12] was over 50 µM each time. For the same compound, the CC50 in data set [13] was over 50 µM. In data set [6], the “Increase in Tm of TBEV-5 G4” value is “strong distortion of melting curves”. Further, the “Virus inhibition in initial screening” value in data set [14] is “no virus inhibition effects”. Also, the “Displacement of ThT” value in data set [7] is on record as “did not significantly displace”.

With `CN(C)c1ccc(Nc2c3ccc(NC(=O)CCN4CCCC4)cc3nc3cc(NC(=O)CCN4CCCC4)ccc23)cc1` [BRACO-19], in [9], the EC50 was over 50 µM and the “SI (CC50/EC50)” value is on record as over 1. Besides, the “Interaction with RNA G4” value in [2] is “specifically interact”. For the same compound, in data set [11], the concentration giving a half-maximal response (EC50) was over 50 µM and the “SI (CC50/EC50)” value is over 1. Moreover, the “Increase in Tm of TBEV-5 G4” value in data set [6] was “strong distortion of melting curves”. Moreover, the “Virus inhibition in initial screening” value in [14] is listed as “no virus inhibition effects”. Moreover, the “Effect on ZIKV virus titers” value in [15] is “decrease ZIKV virus titers”. Also, the CC50 in data set [8] is over 50 µM.

Turning to `COc1ccc2cc3[n+](cc2c1OC)CCc1cc2c(cc1-3)OCO2` [Berberin, berberine], the “Reduction of numbers of viral RNA copies” value in [16] is given as about 25%; in data set [19], “about 40%”. Besides, the EC50 in data set [10] is 1.26 µM; in [12], 1.57 µM; in data set [14] (setting [26]), 1.2 to 2.9 µM. In addition, in data set [17], the “Inhibition of RT” value is “did not inhibit RT”. Also, the “G4 specificity of binding (titration curves with TBEV-5 versus TBEV-5mut)” value in data set [3] is “specifically bind G4”. The CC50 in data set [13] is over 50 µM. Also, in [5], the “Full product of reverse transcription relative to no-ligand control” value is reported as “does not inhibit RT”. Besides, the “Phase of the viral replication cycle in which the antiviral action takes effect” value (“Phase of the viral replication cycle” for short) in data set [18] is given as “post-entry/fusion phase”. The “Increase in Tm of TBEV-5 G4” value in data set [6] was “up to 3.5 °C”. The “Course of anti-TBEV activity over time” value in [14] is recorded as “stable over time”. The “Displacement of TO” value in data set [7] is on record as “did not displace”. Further, the “Displacement of ThT” value in [7] is reported as “around 50%”. The “Suppression of infectious viral particle formation” value in [20] is listed as “partial”.

`CN(C)c1ccc(C(=C2C=CC(=[N+](C)C)C=C2)c2ccc(N(C)C)cc2)cc1` [CV, crystal violet] came in with a CC50 in data set [8] (pig) of under 1.6 µM.

On to `Cc1cnc(CNC(=O)c2c(=O)c3ccc(N4CCCN(C)CC4)nc3n3c2sc2ccccc23)cn1` [CX5461], for which the “Antiviral effect at the lowest non-cytotoxic concentration” value in data set [9] and in data set [11] was “^eNo antiviral effect was observed at the lowest non-cytotoxic concentration of 5 μM” in each case. In data set [8] (pig), the CC50 amounted to 14.1 µM.

As to `CCC1=C(C)c2cc3[nH]c(cc4nc(cc5c(CCC(=O)O)c(C)c(cc1n2)n5C)C(CCC(=O)O)=C4C)c(C)c3CC` [NMM, N-Methylmesoporphyrin IX], in [9], the EC50 is 0.02 µM and the “SI (CC50/EC50)” value is recorded as >2 500. For the same compound, the “Inhibition of RT” value in data set [17] is “did not inhibit RT”. Also, in [3], the “G4 specificity of binding (titration curves with TBEV-5 versus TBEV-5mut)” value was “specifically bind G4”. Also, in data set [11], the EC50 amounted to 0.01 µM and the “SI (CC50/EC50)” value is over 5000. Also, the “Full product of reverse transcription relative to no-ligand control” value in data set [5] was “inhibits reverse transcriptase”. In addition, in data set [18], the “Phase of the viral replication cycle” value is given as “prior to the entry/fusion steps”. Besides, the “Increase in Tm of TBEV-5 G4” value in data set [6] is “up to 3.5 °C”. In [14], the “Concentration that completely suppressed TBEV replication” value was determined as 1.6 µM and the “Course of anti-TBEV activity over time” value is listed as “stable over time”. For the same compound, in [8], the CC50 is over 50 µM; the “Cell morphology and monolayer cohesion” value is “observable changes in cell morphology and in mechanical monolayer cohesion”. Besides, the “Viable viral particle formation” value in data set [20] is reported as “no viable viral particle formation”. Besides, the “Effect on viral RNA copies” value in data set [21] was “complete inhibition of RNA synthesis”.

As for `NCCOc1cc(C(=O)Nc2cc(OCCN)c3ccccc3n2)nc(C(=O)Nc2cc(OCCN)c3ccccc3n2)c1` [PDS, Pyridostatin], the “RdRp activity relative to no-ligand control” value in data set [1] was under 10%. The EC50 was 2.94 µM in data set [10], 1.29 µM in data set [12] and 1.2 to 2.9 µM in [14] (setting [26]). Moreover, the “Phase of ZIKV cycle affected” value in [22] is reported as “replication period rather than entry”. The “Inhibition of RT” value in [17] is given as “strong inhibitory effect”. Besides, the CC50 in [13] is over 50 µM. Also, the “Phase of the viral replication cycle” value in data set [18] is on record as “post-entry/fusion phase”. Besides, the “Course of anti-TBEV activity over time” value in data set [14] is “stable over time”. In addition, the “Suppression of infectious viral particle formation” value in [20] is on record as “partial; also recorded: complete”. In [23], the “Effect on ZIKV NS2B-NS3 protease” value is recorded as “reduces its catalytic activity”.

In the case of `C[n+]1cc(NC(=O)c2ccc3ccc4ccc(C(=O)Nc5cc6ccccc6[n+](C)c5)nc4c3n2)cc2ccccc21` [PhenDC3], in [9], a half-maximal response (EC50) required 5.68 µM and the “SI (CC50/EC50)” value is on record as over 8.08. For the same compound, the “RdRp activity relative to no-ligand control” value in [1] is under 10%. Moreover, in data set [17], the “Inhibition of RT” value was “strong inhibitory effect”. Further, in data set [11], the midpoint of the response, the EC50, lay at 5.77 µM and the “SI (CC50/EC50)” value is over 8.66. In addition, the “Change of CD at 263 nm of TBEV-5” value in data set [4] is given as “most pronounced”. Besides, the “Phase of the viral replication cycle” value in data set [18] is listed as “post-entry/fusion phase”. In addition, the “Increase in Tm of TBEV-5 G4” value in data set [6] is listed as “strong distortion of melting curves”. In data set [24], the “Inhibition of RdRp activity” value was “almost completely inhibits”. In data set [25], the “Effect on HCV RdRp” value is “no significant effect”. Further, in data set [14], the “Course of anti-TBEV activity over time” value is given as “gradually disappeared or dropped significantly” and the EC50 is about 5 µM. Further, in [7], the “Displacement of the probe (TO or ThT)” value is about 100%. Moreover, the CC50 in data set [8] is over 50 µM.

With `CN1C(=Cc2cc[n+](C)c3ccccc23)Sc2ccccc21` [TO, thiazole orange], the “G4 specificity of binding (titration curves with TBEV-5 versus TBEV-5mut)” value in data set [3] was “bind non-specifically”. Further, the “Change of CD at 263 nm of TBEV-5” value in data set [4] is given as “most pronounced”. Also, the “Increase in Tm of TBEV-5 G4” value in data set [6] is “strong distortion of melting curves”. Moreover, in data set [7], the “Displacement of ThT” value was “almost entirely displaces”. Moreover, the CC50 in data set [8] was determined as 1.8 µM.

With `Cc1ccc2c(c1)sc(-c1ccc(N(C)C)cc1)[n+]2C` [ThT, thioflavin T], the “Antiviral effect at the lowest non-cytotoxic concentration” value in data set [9] and in data set [11] was “^eNo antiviral effect was observed at the lowest non-cytotoxic concentration of 5 μM” each time. Also, in data set [3], the “G4 specificity of binding (titration curves with TBEV-5 versus TBEV-5mut)” value was “specifically bind G4”. For the same compound, in data set [6], the “Increase in Tm of TBEV-5 G4” value is “up to 3.5 °C”. Further, the “Displacement of TO” value in [7] is listed as “does not displace”. For the same compound, the CC50 in data set [8] (pig) is 10.6 µM.

As to `NCCOc1cc(NC(=O)c2cc(OCc3cn(CCC(=O)O)nn3)cc(C(=O)Nc3cc(OCCN)c4ccccc4n3)n2)nc2ccccc12` [cPDS, Carboxy pyridostatin], in data set [9], it took 5.52 µM to reach a half-maximal effect (EC50) and the “SI (CC50/EC50)” value is recorded as over 9.05. Moreover, the “RdRp activity relative to no-ligand control” value in data set [1] is recorded as under 10%. Besides, in data set [11], it took 4.45 µM to reach a half-maximal effect (EC50) and the “SI (CC50/EC50)” value is listed as over 11.23. For the same compound, the “Phase of the viral replication cycle” value in data set [18] is given as “post-entry/fusion phase”. Moreover, the “Increase in Tm of TBEV-5 G4” value in data set [6] was “strong distortion of melting curves”. Besides, in [14], the “Course of anti-TBEV activity over time” value was “gradually disappeared or dropped significantly” and the 50% effective concentration (EC50) was about 5 µM. In [8], the CC50 was over 50 µM.

The values above are taken from article PMC9071444 (Nucleic Acids Research, 2022).
